What all share (assay type): cell-based
Experiment [1] relates to Chrysosporium keratinophilum. As to the kind of experiment: Agar plate disc-diffusion, antifungal inhibition zone. The conditions noted are these: Sabouraud's dextrose agar, 72 hours. The method, then:
(§1) The agar plate disc-diffusion method was applied. […] The discs were then placed onto the surface of agar plates (nutrient agar for bacteria and Sabouraud's dextrose agar for fungi) seeded with the test organism. Each plate contained 15 mL of the agar medium, previously seeded with 0.2 mL of the broth culture of each organism pregrown for 18 hours. The plates were incubated at 37° C. for 48 hours, and 72 hours for fungi. The inhibition zones were measured in mm. Discs impregnated with DMSO were used as a control, and its inhibition zone was subtracted from the tested compound actual inhibition zone.
(In agar diffusion tests the substance spreads into inoculated agar from a disc or well.)

In another experiment the test system is Aspergillus flavus. The description is as above. The conditions noted are these: Sabouraud's dextrose agar, 72 hours. The method, then:
as §1

Another experiment relates to Staphylococcus aureus. Description: Agar plate disc-diffusion, antibacterial inhibition zone. The conditions noted are these: Staphylococcus aureus (Gram positive), nutrient agar, 37° C., 48 hours. As for the experimental part:
as §1

The test system of another experiment is Bacillus Cereus. The description is as above. Conditions: Bacillus Cereus (Gram positive), nutrient agar, 37° C., 48 hours. As for the experimental part: as §1
Another experiment relates to Escherichia coli. The description is as above. Conditions: Escherichia coli (Gram negative), nutrient agar, 37° C., 48 hours. As for the experimental part: as §1
The test system of a further experiment is Pseudomonas aeruginosa. The experiment is described as above. The conditions noted are these: Pseudomonas aeruginosa (Gram negative), nutrient agar, 37° C., 48 hours. As for the experimental part:
as §1

[2] abbreviates: A = concentration of comp. = 10,000 μL.
Setting [3] is: B = concentration of comp. = 30,000 μL.
The mark [4] stands for this setting: C = concentration of comp. = 50,000 μL.

For `COc1ccc(CSc2nnc(-c3cccc(F)c3)n2-c2ccccc2)cc1` [III, 3-(3-fluorophenyl)-5-(4-methoxybenzylthio)-4-phenyl-4H-1,2,4-triazole], the inhibition zone in experiment [1] (setting [2]) worked out at 26 mm; in experiment [1] (setting [3]), 28 mm; in experiment [1] (setting [4]) it was 42 mm; in the experiment on Aspergillus flavus (setting [2]), 19 mm; in the experiment on Aspergillus flavus (setting [3]) it was 22 mm; in the experiment on Aspergillus flavus (setting [4]) it was 31 mm. For the same compound, the inhibition zone with Staphylococcus aureus (setting [2]) was found to be 16 mm; in the experiment on Staphylococcus aureus (setting [3]) it was 22 mm; in the experiment on Staphylococcus aureus (C = concentration of comp.) it was 34 mm; in the experiment on Bacillus Cereus (setting [2]), 24 mm; in the experiment with Bacillus Cereus (setting [3]) it was 27 mm; in the experiment on Bacillus Cereus (setting [4]) it was 40 mm. Further, the inhibition zone is 27 mm with Escherichia coli (setting [2]); 35 mm with Escherichia coli (setting [3]); 48 mm in the experiment on Escherichia coli (setting [4]); 22 mm in the experiment with Pseudomonas aeruginosa (setting [2]); 25 mm in the experiment on Pseudomonas aeruginosa (setting [3]); 36 mm in the experiment on Pseudomonas aeruginosa (setting [4]).

The values above are taken from patent US12221423B1, “3-(3-fluorophenyl)-5-(4-methoxybenzylthio)-4-phenyl-4H-1,2,4-triazole as an antimicrobial compound” (KING FAISAL UNIVERSITY, priority 2023, dated 2025).
